# Test results as given in the supplement of paper PMC7244745.
# ± gives the uncertainty stated by the source.
# Tests used:
# [1] = tested on: Klebsiella pneumoniae ATCC 13882; assay: rate of pH (A557-A630) increase, Gompertz fit (10^-4 s-1); higher = faster ureolysis; extreme values may be limits of the assay
# Method: (§1)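 Klebsiella pneumoniae ATCC 13882 (start OD600 0.05) grown in M9U medium with 40 mM urea and phenol red plus inhibitor, in triplicate in 96-well plates. A557 and OD630 were read every 15 min for 24 h. Ureolysis was followed as the pH-related A557-A630: onset time, Gompertz-fit rate and final value. Growth was followed as OD630.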
# [2] = tested on: Klebsiella pneumoniae ATCC 13882; assay: onset of ureolytic pH increase; higher = more delayed ureolysis (inhibition)
# Method: as §1
# [3] = tested on: Klebsiella pneumoniae ATCC 13882; assay: final pH-related absorbance (A557-A630) after 24 h (absorbance units); higher = more ureolysis; extreme values may be limits of the assay
# Method: as §1
# [4] = tested on: Klebsiella pneumoniae ATCC 13882; assay: final OD630 (growth) after 24 h; higher = more bacterial growth; extreme values may be limits of the assay
# Method: as §1
Compound,rate of pH ([1]; 0.1 mM),rate of pH ([1]; 1 mM),rate of pH ([1]; 10 mM),onset of ureolytic pH increase ([2]; 0.1 mM),onset of ureolytic pH increase ([2]; 1 mM),onset of ureolytic pH increase ([2]; 10 mM),final pH-related absorbance ([3]; 0.1 mM),final pH-related absorbance ([3]; 1 mM),final pH-related absorbance ([3]; 10 mM),final OD630 ([4]; 0.1 mM),final OD630 ([4]; 1 mM),final OD630 ([4]; 10 mM),rate of pH ([1]; 0.007 mM),rate of pH ([1]; 0.07 mM),rate of pH ([1]; 0.7 mM),onset of ureolytic pH increase ([2]; 0.007 mM),onset of ureolytic pH increase ([2]; 0.07 mM),onset of ureolytic pH increase ([2]; 0.7 mM),final pH-related absorbance ([3]; 0.007 mM),final pH-related absorbance ([3]; 0.07 mM),final pH-related absorbance ([3]; 0.7 mM),final OD630 ([4]; 0.007 mM),final OD630 ([4]; 0.07 mM),final OD630 ([4]; 0.7 mM),rate of pH ([1]; 0.017 mM),rate of pH ([1]; 0.167 mM),onset of ureolytic pH increase ([2]; 0.017 mM),onset of ureolytic pH increase ([2]; 0.167 mM),final pH-related absorbance ([3]; 0.017 mM),final pH-related absorbance ([3]; 0.167 mM),final OD630 ([4]; 0.017 mM),final OD630 ([4]; 0.167 mM)
CNC(=O)NC [N.N'-Dimethylurea],1.69 ± 0.054,1.77 ± 0.022,0.0814 ± 0.0017,592.2 ± 2.8 min,784 ± 29 min,0 min,0.213 ± 0.004,0.197 ± 0.095,0.456 ± 0.0086,0.502 ± 0.0051,0.411 ± 0.018,0,,,,,,,,,,,,,,,,,,,,
O=C(O)C(=O)O [Oxalic acid],1.52 ± 0.024,1.62 ± 0.013,0,678 ± 0.9 min,677.1 ± 1.1 min,> 900 min,0.334 ± 0.008,0.291 ± 0.0011,0,0.435 ± 0.0093,0.441 ± 0.0005,0.089 ± 0.0056,,,,,,,,,,,,,,,,,,,,
NP(N)(=O)Oc1ccccc1 [Phenyl phosphorodiamidate],,,,,,,,,,,,,0,0,0,> 900 min,> 900 min,> 900 min,0,0,0,0.421 ± 0.0059,0.4185 ± 0.004,0.384 ± 0.01,,,,,,,,
O=S(O)S(=O)(=O)O [Potassium disulfite],1.766 ± 0.005,0.8111 ± 0.002,0,427 ± 1.5 min,519 ± 12 min,> 900 min,0.358 ± 0.002,0.356 ± 0.014,0,0.462 ± 0.012,0.531 ± 0.001,0.024 ± 0.002,,,,,,,,,,,,,,,,,,,,
[K+].[O]=[Mn](=[O])(=[O])[O-] [Potassium permanganate],1.65 ± 0.032,0,,681.1 ± 6.4 min,> 1500 min,,0.062 ± 0.0044,0,,0.444 ± 0.0025,0,,,,,,,,,,,,,,,,,,,,,
Oc1ccccc1O [Pyrocatechol],1.789 ± 0.015,1.74 ± 0.016,,663.9 ± 4.2 min,874 ± 21 min,,0.397 ± 0.0008,0.369 ± 0.011,,0.425 ± 0.0055,0.462 ± 0.0061,0,,,,,,,,,,,,,,,,,,,,
[F-].[Na+] [Sodium flouride],1.35 ± 0.025,0,0,733.1 ± 3.4 min,> 1500 min,> 1500 min,0.178 ± 0.0021,0,0,0.408 ± 0.0001,0.368 ± 0.0081,0.335 ± 0.0025,,,,,,,,,,,,,,,,,,,,
O=S([O-])[O-].[Na+].[Na+] [Sodium sulfite],2.1 ± 0.24,1.883 ± 0.013,0.984 ± 0.011,420 ± 13 min,444 ± 24 min,593 ± 7.5 min,0.461 ± 0.054,0.373 ± 0.006,0.273 ± 0.011,0.477 ± 0.013,0.504 ± 0.027,0.416 ± 0.004,,,,,,,,,,,,,,,,,,,,
O=S(=O)(O)SSS(=O)(=O)O [Sodium tetrathionate dihydrate],3.64 ± 1.1,3.32 ± 1.5,3.97 ± 1.7,433 ± 21 min,434 ± 22 min,430 ± 23 min,0.569 ± 0.076,0.492 ± 0.1,0.5 ± 0.12,0.532 ± 0.027,0.541 ± 0.021,0.554 ± 0.021,,,,,,,,,,,,,,,,,,,,
N#C[S-].[Na+] [Sodium thiocyanate],1.61 ± 0.036,1.6 ± 0.048,0.0522 ± 0.0032,675.2 ± 3.9 min,704 ± 10 min,770 ± 19 min,0.152 ± 0.002,0.144 ± 0.0019,0.123 ± 0.0011,0.431 ± 0.003,0.445 ± 0.0004,0.403 ± 0.003,,,,,,,,,,,,,,,,,,,,
O=S(O)(O)=S [Sodium thiosulfate],2.09 ± 0.021,2.11 ± 0.025,2.2095 ± 0.0016,570 ± 6.7 min,595.8 ± 5 min,611 ± 7.8 min,0.154 ± 0.0011,0.14 ± 0.0017,0.142 ± 0.011,0.476 ± 0.0014,0.457 ± 0.0043,0.454 ± 0.011,,,,,,,,,,,,,,,,,,,,
NS(=O)(=O)O [Sulfamic acid],2.17 ± 0.036,1.96 ± 0.055,0,561 ± 12 min,535 ± 7.1 min,> 900 min,0.166 ± 0.019,0.182 ± 0.011,0,0.506 ± 0.0081,0.515 ± 0.014,0,,,,,,,,,,,,,,,,,,,,
O=C(OC[C@H]1O[C@@H](OC(=O)c2cc(O)c(O)c(OC(=O)c3cc(O)c(O)c(O)c3)c2)[C@H](OC(=O)c2cc(O)c(O)c(OC(=O)c3cc(O)c(O)c(O)c3)c2)[C@@H](OC(=O)c2cc(O)c(O)c(OC(=O)c3cc(O)c(O)c(O)c3)c2)[C@@H]1OC(=O)c1cc(O)c(O)c(OC(=O)c2cc(O)c(O)c(O)c2)c1)c1cc(O)c(O)c(OC(=O)c2cc(O)c(O)c(O)c2)c1 [Tannic acid],1.47 ± 0.091,1.282 ± 0.0068,0,605 ± 31 min,641.6 ± 5.1 min,> 1500 min,0.129 ± 0.0091,0.125 ± 0.0013,0,0.452 ± 0.0032,0.433 ± 0.0003,0,,,,,,,,,,,,,,,,,,,,
NC(N)=S [Thiourea],2.27 ± 0.21,2.13 ± 0.083,1.94 ± 0.099,410 ± 18 min,424 ± 12 min,456 ± 13 min,0.271 ± 0.024,0.25 ± 0.0002,0.236 ± 0.014,0.48 ± 0.0071,0.492 ± 0.012,0.483 ± 0.008,,,,,,,,,,,,,,,,,,,,
O=C1C=CC(=O)C=C1 [p-benzoquinone],,,,,,,,,,,,,,,,,,,,,,,,,1.59 ± 0.027,0,681.1 ± 2 min,> 1500 min,0.171 ± 0.0039,0,0.421 ± 0.011,0
Oc1ccc(Cl)cc1 [p-chlorophenol],1.5 ± 0.019,0.0559 ± 0.0036,0,732.7 ± 2.5 min,935 ± 14 min,> 900 min,0.162 ± 0.0043,0.09 ± 0.0059,0,0.42 ± 0.0062,0.401 ± 0.0036,0,,,,,,,,,,,,,,,,,,,,
